Test results published in ChEMBL document CHEMBL4342517, “Design, Synthesis, and Mechanism Study of Benzenesulfonamide-Containing Phenylalanine Derivatives as Novel HIV-1 Capsid Inhibitors with Improved Antiviral Activities” (J Med Chem, 2020).
Activity calls are given as the source filed them. The calls are words filed in the database; no cut-off is given here.

Assays:
[1] = tested on: TZM; experiment: Cytotoxicity in uninfected human TZM-bl assessed as reduction in cell viability incubated for 1 day by Cyto-tox-Glo cytotoxicity assay; assay type: cell-based; settings: 24 h
[2] = tested on: Human immunodeficiency virus 1; experiment: Antiviral activity against HIV1 NL4-3 infected in human TZM-bl cells assessed as reduction in virus induced cytopathogenicity incubated for 1 day by luciferase reporter gene assay; assay type: functional, organism-based; settings: Human immunodeficiency virus 1, NL4-3, TZM-bl, 24 h
[3] = target: T1, Structural capsid protein (Human immunodeficiency virus 1, UniProt Q76129); experiment: Binding affinity to HIV1 NL4-3 capsid protein hexamer by SPR analysis
[4] = target: T1, Structural capsid protein; experiment: Binding affinity to HIV1 NL4-3 capsid protein monomer by SPR analysis
[5] = tested on: Human immunodeficiency virus 1; experiment: Antiviral activity against HIV1 3B infected in human MT4 cells assessed as reduction in virus-induced cell death incubated for 5 days by MTT assay; assay type: functional, organism-based; settings: Human immunodeficiency virus 1, 3B, MT4, 120 h
[6] = tested on: MT4; experiment: Cytotoxicity in mock-infected human MT4 assessed as reduction in cell viability incubated for 5 days by MTT assay; assay type: cell-based; settings: mt4, 120 h
[7] = tested on: Human immunodeficiency virus 2; experiment: Antiviral activity against HIV2 ROD infected in human MT4 cells assessed as reduction in virus-induced cell death incubated for 5 days by MTT assay; settings: Human immunodeficiency virus 2, ISOLATE ROD, MT4, 120 h
[8] = target: Structural capsid protein (Human immunodeficiency virus 1) (UniProt Q76129); experiment: Inhibition of HIV1 NL4-3 capsid protein assembly at 50 uM measured every 1 min for 19 mins
[9] = tested on: Human immunodeficiency virus 1; experiment: Antiviral activity against HIV1 Env-pseudotyped virus in human U87.CD4.CCR5 target cells assessed as reduction in viral infection at late stage; assay type: functional, organism-based; settings: Human immunodeficiency virus 1, U87/CD4/CCR5
[10] = tested on: Human immunodeficiency virus 1; experiment: Antiviral activity against HIV1 Env-pseudotyped virus in human U87.CD4.CCR5 target cells assessed as reduction in viral infection at early stage; assay type: functional, organism-based; settings: Human immunodeficiency virus 1, U87/CD4/CCR5
[11] = human, microsomes
Description: Intrinsic clearance in human liver microsomes in presence of NADPH regenerating system by LC-MS/MS analysis

[12] = human, microsomes; remark: listed apart in the source
Description: Half life in human liver microsomes in presence of NADPH regenerating system by LC-MS/MS analysis

[13] = Stability in human plasma assessed as compound remaining level at 2 uM incubated for 120 mins at 37 degC by LC-MS/MS analysis; assay type: ADME, cell-free; settings: 2 h
[14] = tested on: Human immunodeficiency virus 1; experiment: Induction of increase in CA/p24 content in HIV1 NL4-3 infected in human TZM-bl cells at 10 uM by ELISA relative to control; assay type: functional
[15] = target: Structural capsid protein (Human immunodeficiency virus 1) (UniProt Q76129); experiment: Induction of HIV1 NL4-3 capsid protein assembly at 50 uM measured every 1 min for 19 mins

T1 sequence (Q76129 whole entry): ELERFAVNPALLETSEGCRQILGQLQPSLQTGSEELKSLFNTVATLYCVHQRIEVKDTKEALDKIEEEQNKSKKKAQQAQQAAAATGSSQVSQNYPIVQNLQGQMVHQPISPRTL
Chain of Structural capsid protein (Human immunodeficiency virus 1) (Q76129 as listed by the source): as the sequence (Q76129 whole entry) above

`COc1ccc(N(C)C(=O)[C@H](Cc2ccccc2)NC(=O)CNS(=O)(=O)c2cccc([N+](=O)[O-])c2)cc1` gave a CC50 [1] greater than 38 µM and an EC50 [2] of 8.93 µM.
`COc1ccc(N(C)C(=O)[C@H](Cc2ccccc2)NC(=O)CNS(=O)(=O)c2cccc(N)c2)cc1` showed a CC50 [1] greater than 40.3 µM and an EC50 [2] of 8.26 µM.
`COc1ccc(N(C)C(=O)[C@H](Cc2ccccc2)NC(=O)CN2CCN(S(=O)(=O)c3ccccc3F)CC2=O)cc1` showed a CC50 [1] greater than 34.3 µM and an EC50 [2] of 0.48 µM.
In the case of `COc1ccc(N(C)C(=O)[C@H](Cc2ccccc2)NC(=O)CNS(=O)(=O)c2ccc(Br)cc2)cc1`, the CC50 [1] is reported as greater than 35.7 µM and the EC50 [2] is reported as 8.21 µM.
`COc1ccc(N(C)C(=O)[C@H](Cc2ccccc2)NC(=O)CNS(=O)(=O)c2ccccc2N)cc1` gave a CC50 [1] greater than 40.3 µM and an EC50 [2] of 9.06 µM.
`COc1ccc(N(C)C(=O)[C@H](Cc2ccccc2)NC(=O)CN2CCN(S(=O)(=O)c3ccc(C)cc3)CC2=O)cc1` showed a CC50 [1] greater than 34.6 µM and an EC50 [2] of 0.5 µM.
For `COc1ccc(N(C)C(=O)[C@H](Cc2ccccc2)NC(=O)CN2CCN(S(=O)(=O)c3ccccc3N)CC2=O)cc1`, the CC50 [1] was greater than 34.5 µM and the EC50 [2] was 0.54 µM.
With `COc1ccc(N(C)C(=O)[C@H](Cc2ccccc2)NC(=O)CN2C(=O)Nc3ccc(OC)cc3S2(=O)=O)cc1` the CC50 [1] was greater than 36.2 µM and the EC50 [2] was 4.89 µM.
`COc1ccc(N(C)C(=O)[C@H](Cc2ccccc2)NC(=O)CN2C(=O)N(CC(=O)N[C@@H](Cc3ccccc3)C(=O)N(C)c3ccc(OC)cc3)S(=O)(=O)c3cc(F)ccc32)cc1` gave a Kd [3] of 1.3 µM, a Kd [4] of 0.2 µM and a CC50 [1] greater than 23.1 µM. The EC50 [2] was 3.82 µM.
With `COc1ccc(N(C)C(=O)[C@H](Cc2ccccc2)NC(=O)CNS(=O)(=O)c2ccc([N+](=O)[O-])cc2)cc1` the CC50 [1] was greater than 38 µM and the EC50 [2] was greater than 38 µM.
For `COc1ccc(N(C)C(=O)[C@H](Cc2ccccc2)NC(=O)CN2CCN(S(=O)(=O)c3ccc(Br)cc3)CC2=O)cc1`, the CC50 [1] was greater than 31.1 µM and the EC50 [2] was 0.36 µM.
`COc1ccc(N(C)C(=O)[C@H](Cc2ccccc2)NC(=O)CN2CCN(S(=O)(=O)c3ccc(OC)cc3)CC2=O)cc1` showed a CC50 [1] greater than 33.6 µM and an EC50 [2] of 0.64 µM.
With `COc1ccc(N(C)C(=O)[C@H](Cc2ccccc2)NC(=O)CN2CCN(S(=O)(=O)c3ccccc3)CC2=O)cc1` the CC50 [1] was greater than 35.4 µM, the EC50 [2] was 0.37 µM and the EC50 [5] was 0.71 µM. For the same compound, the CC50 [6] was 109 µM and the EC50 [7] was 0.032 µM.
For `COc1ccc(N(C)C(=O)[C@H](Cc2ccccc2)NC(=O)CNS(=O)(=O)c2cccc(F)c2)cc1`, the inhibition [8] was “Active”, the IC50 [9] was 4.2 µM and the IC50 [10] was 8.22 µM. The CC50 [1] was greater than 40 µM, the EC50 [2] was 5.61 µM and the EC50 [5] was 24.5 µM. For the same compound, the CC50 [6] was 136 µM and the EC50 [7] was 20.1 µM.
`COc1ccc(N(C)C(=O)[C@H](Cc2ccccc2)NC(=O)CNS(=O)(=O)c2ccc(C)cc2)cc1` gave a CC50 [1] greater than 40.4 µM and an EC50 [2] of 6.26 µM.
`COc1ccc(N(C)C(=O)[C@H](Cc2ccccc2)NC(=O)CNS(=O)(=O)c2c(C)cc(C)cc2C)cc1` showed a CC50 [1] greater than 38.2 µM and an EC50 [2] of 10.7 µM.
Compound `COc1ccc(N(C)C(=O)[C@H](Cc2ccccc2)NC(=O)CN2CCN(S(=O)(=O)c3cccc([N+](=O)[O-])c3)CC2=O)cc1` has a CC50 [1] greater than 32.8 µM and an EC50 [2] of 0.67 µM.
`COc1ccc(N(C)C(=O)[C@H](Cc2ccccc2)NC(=O)CN2CCN(S(=O)(=O)c3cccc(F)c3)CC2=O)cc1` showed a CC50 [1] greater than 34.3 µM and an EC50 [2] of 0.45 µM.
In the case of `COc1ccc(N(C)C(=O)[C@H](Cc2ccccc2)NC(=O)CNS(=O)(=O)c2ccccc2F)cc1`, the CC50 [1] is reported as greater than 40 µM and the EC50 [2] is reported as 10.8 µM.
With `O=C(O)Cc1ccccc1Nc1c(Cl)cccc1Cl` [DICLOFENAC] the CLH [11] was 93.6 µL/min/mg and the t1/2 [12] was 14.8 min.
Compound `COc1ccc(N(C)C(=O)[C@H](Cc2ccccc2)NC(=O)CNS(=O)(=O)c2c(C(C)C)cc(C(C)C)cc2C(C)C)cc1` has a CC50 [1] greater than 32.9 µM and an EC50 [2] of 7.9 µM.
In the case of `COc1ccc(N(C)C(=O)[C@H](Cc2ccccc2)NC(=O)CN2C(=O)Nc3ccccc3S2(=O)=O)cc1`, the inhibition [8] is reported as “Active”, the IC50 [9] is reported as 2.44 µM and the IC50 [10] is reported as 1.94 µM. For the same compound, the CC50 [1] was greater than 38.3 µM, the EC50 [2] was 2.11 µM and the EC50 [5] was 6.07 µM. For the same compound, the CC50 [6] was 130 µM and the EC50 [7] was 2.72 µM.
For `COc1ccc(N(C)C(=O)[C@H](Cc2ccccc2)NC(=O)CNS(=O)(=O)c2ccc(F)cc2)cc1`, the CC50 [1] was greater than 40 µM and the EC50 [2] was 6.81 µM.
Compound `COc1ccc(N(C)C(=O)[C@H](Cc2ccccc2)NC(=O)CN2CCN(S(=O)(=O)c3ccc([N+](=O)[O-])cc3)CC2=O)cc1` has a CC50 [1] greater than 32.8 µM, an EC50 [2] of 0.3 µM and an EC50 [5] of 4.9 µM. For the same compound, the CC50 [6] was 8.89 µM and the EC50 [7] was 0.16 µM.
`COc1ccc(N(C)C(=O)[C@H](Cc2ccccc2)NC(=O)CNS(=O)(=O)c2cc(C)cc(C)c2)cc1` showed a CC50 [1] greater than 39.2 µM and an EC50 [2] of 9.22 µM.
For `COc1ccc(N(C)C(=O)[C@H](Cc2ccccc2)NC(=O)CNS(=O)(=O)c2ccc(OC)cc2)cc1`, the CC50 [1] was greater than 39.1 µM and the EC50 [2] was 10.4 µM.
`Cc1[nH]c2ccccc2c1CC(=O)N[C@@H](Cc1ccccc1)C(=O)N(C)c1ccccc1` showed a Stability [13] of 69%, an Activity [14] of 40% and an IC50 [9] of 0.23 µM. For the same compound, the IC50 [10] was 0.056 µM, the CC50 [1] was greater than 47 µM and the Activity [15] was “Active”. It also gave a CC50 [6] of 145 µM and a CLH [11] of 1080.3 µL/min/mg.
`COc1ccc(N(C)C(=O)[C@H](Cc2ccccc2)NC(=O)CN2CCN(S(=O)(=O)c3ccc(Cl)cc3)CC2=O)cc1` showed a CC50 [1] greater than 33.4 µM and an EC50 [2] of 1.05 µM.
With `COc1ccc(N(C)C(=O)[C@H](Cc2ccccc2)NC(=O)CN2C(=O)N(CC(=O)N[C@@H](Cc3ccccc3)C(=O)N(C)c3ccc(OC)cc3)S(=O)(=O)c3cc(Br)ccc32)cc1` the CC50 [1] was greater than 21.6 µM and the EC50 [2] was 5.62 µM.
In the case of `COc1ccc(N(C)C(=O)[C@H](Cc2ccccc2)NC(=O)CN2CCN(S(=O)(=O)c3cccc(N)c3)CC2=O)cc1`, the Kd [3] is reported as 3.02 µM, the Kd [4] is reported as 10 µM and the CC50 [1] is reported as greater than 34.5 µM. It also gave an EC50 [2] of 0.33 µM.
`COc1ccc(N(C)C(=O)[C@H](Cc2ccccc2)NC(=O)CNS(=O)(=O)c2ccccc2)cc1` gave a CC50 [1] greater than 41.5 µM and an EC50 [2] of 6.23 µM.
Work on `COc1ccc(N(C)C(=O)[C@H](Cc2ccccc2)NC(=O)CN2CCN(S(=O)(=O)c3ccccc3[N+](=O)[O-])CC2=O)cc1` yielded an EC50 [2] of 1 µM.
In the case of `COc1ccc(N(C)C(=O)[C@H](Cc2ccccc2)NC(=O)CNS(=O)(=O)c2ccc(N)cc2)cc1`, the CC50 [1] is reported as greater than 40.3 µM and the EC50 [2] is reported as 6.65 µM.
`COc1ccc(N(C)C(=O)[C@H](Cc2ccccc2)NC(=O)CN2CCN(S(=O)(=O)c3ccc(F)cc3)CC2=O)cc1` gave a CC50 [1] of 25.7 µM and an EC50 [2] of 1.06 µM.
For `COc1ccc(N(C)C(=O)[C@H](Cc2ccccc2)NC(=O)CNS(=O)(=O)c2ccccc2[N+](=O)[O-])cc1`, the CC50 [1] was greater than 38 µM and the EC50 [2] was 8.74 µM.
In the case of `COc1ccc(N(C)C(=O)[C@H](Cc2ccccc2)NC(=O)CN2C(=O)N(CC(=O)N[C@@H](Cc3ccccc3)C(=O)N(C)c3ccc(OC)cc3)S(=O)(=O)c3cc(Cl)ccc32)cc1`, the CC50 [1] is reported as greater than 22.7 µM and the EC50 [2] is reported as 4.77 µM.
`COc1ccc(N(C)C(=O)[C@H](Cc2ccccc2)NC(=O)CNS(=O)(=O)c2ccc(Cl)cc2)cc1` gave a CC50 [1] greater than 38.8 µM and an EC50 [2] of 9.88 µM.
`COc1ccc(N(C)C(=O)[C@H](Cc2ccccc2)NC(=O)CN2C(=O)Nc3ccc(C)cc3S2(=O)=O)cc1` showed a CC50 [1] greater than 37.3 µM and an EC50 [2] of 5.96 µM.
